Measured values: patent US12419811B2, “Hydrogel drug delivery composition” (Board of Regents of the University of Nebraska, priority 2019, dated 2025)

Key:
[1] = tested on: β-catenin; assay: BIO hydrogels in rat experimental periodontitis, IHC staining of β-catenin; assay type: in vivo, Sprague Dawley rats; conditions: between M1 and M2
From the text: (§1) Ten-month-old female Sprague Dawley rats (retired breeders, Envigo) were acclimated for one week prior to experiment. […] Using silk ligatures, the experimental periodontitis was induced as described previously^[32, 38]. Briefly, rats were first anesthetized in an isoflurane chamber with a 1% to 4% isoflurane in 100% O2. After taking the body weight, the rats were positioned with a nose cone supplied with 0.5% to 2% isoflurane and 100% O2 to maintain anesthesia during the entire procedure. To induce experimental periodontitis, a 4-0 silk ligature was gently tightened subgingivally around the maxillary 2nd molars (M2). […] To probe the presence of inflammatory cells between M1 and M2 and osteoclasts in the alveolar crest, a pathologist (SML) blind to experimental group assignment, evaluated the slides semi-quantitatively using an Olympus BX53 microscope. A semi-quantitative scoring system^[32, 40, 41] was used to evaluate inflammatory cells, where 0 is negative, 1 is less than 30% of the affected tissues, 2 is some inflammatory cells (30-60%), and 3 is many inflammatory cells (>60%). Similarly, osteoclasts on the alveolar crest were evaluated using a semi-quantitative scoring system^[32,42] where 0 is negative, 1 is a few osteoclasts lining less than 5% of alveolar bone surface, 2 is some osteoclasts (5-25%), and 3 is many osteoclasts (25-50%). […]

[2] = In vitro release of BIO from PF127 hydrogel (membrane-less); assay type: physicochemical; conditions: 37° C.
Method: After gelation, 2 mL of phosphate-buffered saline (PBS; pH 7.4) containing 0.5% Tween 80 pre-equilibrated at 37° C. were gently laid over the surface of the hydrogels and incubated in a water bath at 37° C. with continuous gentle shaking. […] The release study was performed in triplicate.

[3] = tested on: experimental periodontitis; assay: BIO hydrogels in rat experimental periodontitis, micro-CT of periodontal bone and femur; assay type: in vivo, Sprague Dawley rats; conditions: 100 μM BIO, week 4
From the text: Ten-month-old female Sprague Dawley rats (retired breeders, Envigo) were acclimated for one week prior to experiment. […] Using silk ligatures, the experimental periodontitis was induced as described previously^[32, 38]. Briefly, rats were first anesthetized in an isoflurane chamber with a 1% to 4% isoflurane in 100% O2. After taking the body weight, the rats were positioned with a nose cone supplied with 0.5% to 2% isoflurane and 100% O2 to maintain anesthesia during the entire procedure. To induce experimental periodontitis, a 4-0 silk ligature was gently tightened subgingivally around the maxillary 2nd molars (M2). Following ligature placement, different treatments (10 μL) were locally delivered between the maxillary 1st molar (M1) and 2nd molar (M2) once each week for 3 weeks. After one week, the ligatures were removed. All animals were euthanized at week 4. The entire palate including all three molars was dissected and fixed in 10% formalin prior to micro-CT and histological analyses. […] All palate samples (including all three molars) were evaluated for alveolar bone quality using a high-resolution X-ray microtomography system (Skyscan 1172, Bruker, Kontich, Belgium), references to previous studies^[32, 38]. […] To evaluate bone erosion, the distance from cementoenamel junction (CEJ) to alveolar bone crest (ABC) was determined using Skyscan Data viewer software. […] The ROI was determined from the distopalatal of M1 to the mesiopalatal of M2 (length), 130 slices below the CEJ of M1 and M2 (height), and from the palatal side to the buccal side of M1 and M2 (width). […] For bone quality analysis, a consistent polygonal ROI of trabecular bone at the distal femur was selected and the ROI was determined from 20 slices to 100 slices proximal to the growth plate. The bone histomorphometric parameters, including mean bone volume (BV), bone volume/tissue volume (BV/TV), trabecular thickness (Tb.Th) and bone mineral density (BMD) were determined using CT-Analyzer software.

[4] = tested on: experimental periodontitis; assay: BIO hydrogels in rat experimental periodontitis, H&E histology scores; assay type: in vivo, Sprague Dawley rats
From the text: as §1

[5] = 10 μL local once each week for 3 weeks

O=C1Nc2cc(Br)ccc2/C1=C1/Nc2ccccc2/C1=N\O [BIO, 6-bromoindirubin-3′-oxime]
β-Catenin positive cell score (0-3) [1]: not significantly different (P>0.05) from the saline Con-, PF127, and healthy Con+ group
burst release of BIO ([2]; from 20% w/v PF127 hydrogel, first 3 hr): ~50%
total release of BIO ([2]; from 20% w/v PF127 hydrogel, in 24 hr): ~99%
BIO release profile ([2]; from 25% w/v PF127 hydrogel): burst release in the first 12 hr followed by a sustained release in the next 48 hr
duration of sustained BIO release ([2]; from 30% w/v PF127 hydrogel): over 48 hr
linear distance CEJ to ABC (alveolar bone loss) ([3]; 10 μL local between M1 and M2 once each week for 3 weeks): did not show a statistically significant difference comparing to the saline-treated group
Bone volume (BV) of alveolar bone [3, 5]: No statistically significant difference
trabecular thickness (Tb.Th) of alveolar bone [3, 5]: No statistically significant difference
osteoclast score (semi-quantitative, 0-3) ([4]; alveolar crest, after three weeks of treatment): significantly lower than the saline Con-group
inflammatory cell score (semi-quantitative, 0-3) ([4]; between M1 and M2, after three weeks of treatment): statistically significant difference (P<0.01) only when compared to the saline Con-group
